# Measurements from PMC10614163 (ACS nano, 2023).
# Experiments:
# M^pro = M^pro (Severe acute respiratory syndrome coronavirus 2, UniProt P0DTD1); assay: M^pro-mediated dye release from coacervates; assay type: biochemical, SARS-CoV-2; settings: (R5R5, D10) coacervates, 100 μM dye
# [1] = for partitioning / effect on coacervates, in words: confocal microscopy, (R5R5, D10) coacervates
smiles,measurement,setting,value
"CNc1ccc2nc3ccc(N)cc3[s+]c2c1 [Azure C, azure C]","Release efficiency, RE%, by M^pro",M^pro,98 ± 1%
same,"Encapsulation efficiency, EE%",[1],65 ± 2%
"CC/N=c1\cc2oc3cc(NCC)c(C)cc3c(-c3ccccc3C(=O)OCC)c-2cc1C [Rhodamine 6G, rhodamine 6G]","Release efficiency, RE%, by M^pro",M^pro,98 ± 1%
same,"Encapsulation efficiency, EE%",[1],64 ± 4%
"O=C1OC2(c3ccc(O)cc3Oc3cc(O)ccc32)c2ccccc21 [Fluoresceine, fluoresceine]","Release efficiency, RE%, by M^pro",M^pro,73 ± 7%
"CCN(CC)c1ccc2c(-c3ccccc3C(=O)O)c3ccc(=[N+](CC)CC)cc-3oc2c1 [Rhodamine B, rhodamine B]","Release efficiency, RE%, by M^pro",M^pro,96 ± 2%
same,"Encapsulation efficiency, EE%",[1],56 ± 1%
"Cc1cc2nc3ccc(N(C)C)cc3nc2cc1N.Cl [Neutral red, neutral red]","Release efficiency, RE%, by M^pro",M^pro,99 ± 1%
same,"Encapsulation efficiency, EE%",[1],93 ± 1%
"CN(C)c1ccc2nc3ccc(N)cc3[s+]c2c1.[Cl-] [Azure A, azure A]","Release efficiency, RE%, by M^pro",M^pro,95 ± 1%
same,"Encapsulation efficiency, EE%",[1],50 ± 1%
COc1cccc2c1C(=O)c1c(O)c3c(c(O)c1C2=O)C[C@@](O)(C(=O)CO)C[C@@H]3O[C@H]1C[C@H](N)[C@H](O)[C@H](C)O1 [doxorubicin],"partitioning / effect on coacervates, in words",[1],rapidly cause transformation of coacervates into solid aggregates
CC1(C)C(/C=C/C=C/C=C/C=C2\N(CCCCS(=O)(=O)[O-])c3ccc4ccccc4c3C2(C)C)=[N+](CCCCS(=O)(=O)[O-])c2ccc3ccccc3c21.[Na+] [ICG dye],"partitioning / effect on coacervates, in words",[1],rapidly cause transformation of coacervates into solid aggregates
